Measurements reported in US9642369B2 (dated 2017).

melting point [°C]	SMILES
34 to 36	CCOP(=O)(CCC[N+](C)(C)CCCNS(=O)(=O)c1cccc2c(N(C)C)cccc12)OCC.[Br-]
122 to 124	CN(C)CCCNS(=O)(=O)c1cccc2c(N(C)C)cccc12 (hydrate or solvate)
